# Measured values from patent US4897403A, “Antimalarial compositions and methods” (The United States of America as represented by the …, priority 1986, dated 1990).
# Where two headings read alike, the source gives them in different places.
# Key:
# [1] = test system: chloroquine-resistant clone from Indochina (W-2); assay: microbe, parasite or virus in culture; settings: Plasmodium falciparum
# Method: (§1) Throughout the examples, incorporation of radiolabelled hypoxanthine was used to measure a synchronous growth of the malarial parasites and inhibition of incorporation was the measured parameter of the parasites' rsponse to the drugs. Semi-automated microdilution techniques as disclosed by R. E. Desjardins et al, Antimicrob.
# (§2) First, the antimalarial properties of verapamil (a calcium channel blocker "reversing compound") in vitro were studied. […] The drug combinations were dosed in fixed ratios of their 50% inhibitory concentrations.
# (§3) The IC50 's of each drug in combination set forth in Table 1 were then calculated as a fraction of the control IC50 and plotted as a fraction of one unit of IC50 in FIG. 1. […] The line connecting each unit of IC50 for each clone represents the additivity of drug effects.
# [2] = test system: chloroquine-sensitive West African clone (D-6); assay: Effect of verapamil on chloroquine sensitivity, Example 2, clone D-6; type: cell-based, P. falciparum; settings: Plasmodium falciparum, clone D-6, CQ sensitive, IC50 + 1SD
# From the text: as §1
# [3] = test system: chloroquine-resistant clone from Indochina (W-2); assay: microbe, parasite or virus in culture; type: cell-based, P. falciparum; settings: for IC50: Plasmodium falciparum
# From the text: as §1
# [4] = test system: chloroquine-sensitive West African clone (D-6); assay: In vitro susceptibility (radiolabelled hypoxanthine incorporation, semi-automated microdilution), Example 1, clone D-6; type: cell-based, P. falciparum; settings: Plasmodium falciparum
# Method: as §1, §2
# [5] = test system: Isolates of P. falciparum from Thailand; settings: cited from earlier work
# [6] = test system: chloroquine-resistant clone from Brazil (IEC 306); assay: microbe, parasite or virus in culture; type: cell-based, P. falciparum; settings: Plasmodium falciparum
# Method: as §1, §2, §3
# [7] = test system: malarial parasite growth or hypoxanthine uptake; assay: Effect of verapamil alone on malarial parasite growth or hypoxanthine uptake in vitro; type: cell-based, P. falciparum; settings: 1×10^-6 M and 2×10^-6 M
# From the text: as §1
# [8] = test system: malarial parasites; assay: Antimalarial properties of verapamil in vitro; type: cell-based, P. falciparum
# Method: as §1, §2
smiles,measurement,setting,value
CCN(CC)CCCC(C)Nc1ccnc2cc(Cl)ccc12 (stereo not shown) [chloroquine],IC50,"[1]; read-out: IC50 of chloroquine in drug combination, CQ 25 nM/VER 75 μM fixed ratio, clone W-2",1.5 nM
same,IC50,"[1]; read-out: IC50 of chloroquine in drug combination, CQ 50 nM/VER 50 μM fixed ratio, clone W-2",1.3 nM
same,IC50,"[1]; read-out: IC50 of chloroquine in drug combination, CQ 75 nM/VER 25 μM fixed ratio, clone W-2",3.8 nM
same,IC50,"[2]; read-out: IC50 of chloroquine + 1 × 10^-6 M VER, with 1 × 10^-6 M verapamil",7.8 ± 0.6 nM
same,IC50,"[2]; read-out: IC50 of chloroquine + 2 × 10^-6 M VER, with 2 × 10^-6 M verapamil",8.8 ± 0.3 nM
same,IC50,[3]; read-out: IC50 of chloroquine + 1 × 10^-6 M VER,8.4 ± 0.4 nM
same,IC50,[3]; read-out: IC50 of chloroquine + 2 × 10^-6 M VER,5.6 ± 0.3 nM
same,sensitivity of chloroquine-resistant clone to chloroquine in presence of verapamil (FIGS. 2 and 3),"[3]; constant concentration of verapamil, compared with chloroquine-sensitive West African clone",as sensitive to the chloroquine treatment as the chloroquine-sensitive West African clone
same,IC50,"[4]; read-out: IC50 of chloroquine in drug combination, CQ 25 nM/VER 75 μM fixed ratio, clone D-6",4.4 nM
same,IC50,"[4]; read-out: IC50 of chloroquine in drug combination, CQ 50 nM/VER 50 μM fixed ratio, clone D-6",8 nM
same,IC50,"[4]; read-out: IC50 of chloroquine in drug combination, CQ 75 nM/VER 25 μM fixed ratio, clone D-6",11.4 nM
same,IC50,"[4]; read-out: fifty percent inhibitory concentration (IC50), single drug chloroquine, chloroquine alone, clone D-6",14.1 nM
same,resistance of isolates in vitro,[5],resistant
same,IC50,"[6]; read-out: IC50 of chloroquine in drug combination, CQ 25 nM/VER 75 μM fixed ratio, clone IEC-306",2.8 nM
same,IC50,"[6]; read-out: IC50 of chloroquine in drug combination, CQ 50 nM/VER 50 μM fixed ratio, clone IEC-306",6.3 nM
same,IC50,"[6]; read-out: IC50 of chloroquine in drug combination, CQ 75 nM/VER 25 μM fixed ratio, clone IEC-306",11.7 nM
same,IC50,"[6]; read-out: fifty percent inhibitory concentration (IC50), single drug chloroquine, chloroquine alone, clone IEC-306",52.3 nM
OC(c1cc(C(F)(F)F)nc2c(C(F)(F)F)cccc12)C1CCCCN1 (stereo not shown) [mefloquine],resistance of isolates in vitro,[5],resistant
C=C[C@H]1C[N@@]2CC[C@H]1C[C@H]2[C@H](O)c1ccnc2ccc(OC)cc12 [quinine],resistance of isolates in vitro,[5],resistant
COc1ccc(CCN(C)CCCC(C#N)(c2ccc(OC)c(OC)c2)C(C)C)cc1OC (stereo not shown) [verapamil],effect on malarial parasite growth or hypoxanthine uptake in vitro,[7],no significant effects
same,IC50,"[8]; Plasmodium falciparum, read-out: inhibitory concentration (IC50)",6 to 8 µg/mL
same,fold less potent than chloroquine or mefloquine,"[8]; verapamil vs chloroquine or mefloquine, in vitro","1,000 fold"
